Test results taken from ChEMBL document CHEMBL5724914, “Linking interpersonal differences in gut microbiota composition and drug biotransformation activity” (2024).

Assay: (§1) The drug is tested on Z-028 corresponding to mouse gut metagenome with ENA study accession number: PRJEB37062 and ENA sample accession number: ERS12561827 for biotransformation under anaerobic condition. The drug concentrations were measured over 9 timepoints collected between 0 and 24 hours of incubation by liquid-chromatography-coupled mass spectrometry (LC–MS)
Details: 2 µM
Also: call rule not given here.

Row | Structure (SMILES) | Bacterial Biotransformation
1 | Clc1ccc(Cn2c(CN3CCCC3)nc3ccccc32)cc1 [CLEMIZOLE] | Compound NOT metabolized
2 | COc1cc2c(c(OC)c1OC)-c1ccc(OC)c(=O)cc1[C@@H](NC(C)=O)CC2 [COLCHICINE] | Compound NOT metabolized

Assay: as §1, with “Z-027” for “Z-028”, “to” for “to mouse gut”, “ERS12561826” for “ERS12561827”
Details: 2 µM

Row | Structure (SMILES) | Bacterial Biotransformation
3 | Clc1ccc(Cn2c(CN3CCCC3)nc3ccccc32)cc1 [CLEMIZOLE] | Compound NOT metabolized
4 | COc1cc2c(c(OC)c1OC)-c1ccc(OC)c(=O)cc1[C@@H](NC(C)=O)CC2 [COLCHICINE] | Compound NOT metabolized

Assay: as §1, with “Z-024” for “Z-028”, “pig” for “mouse”, “ERS12561823” for “ERS12561827”
Details: 2 µM

Row | Structure (SMILES) | Bacterial Biotransformation
5 | Clc1ccc(Cn2c(CN3CCCC3)nc3ccccc32)cc1 [CLEMIZOLE] | Compound metabolized
6 | COc1cc2c(c(OC)c1OC)-c1ccc(OC)c(=O)cc1[C@@H](NC(C)=O)CC2 [COLCHICINE] | Compound NOT metabolized

Assay: as §1, with “Z-020” for “Z-028”, “rabbit” for “mouse”, “ERS12561819” for “ERS12561827”
Details: 2 µM

Row | Structure (SMILES) | Bacterial Biotransformation
7 | Clc1ccc(Cn2c(CN3CCCC3)nc3ccccc32)cc1 [CLEMIZOLE] | Compound NOT metabolized
8 | COc1cc2c(c(OC)c1OC)-c1ccc(OC)c(=O)cc1[C@@H](NC(C)=O)CC2 [COLCHICINE] | Compound NOT metabolized

Assay: as §1, with “Z-013” for “Z-028”, “rabbit” for “mouse”, “ERS12561813” for “ERS12561827”
Details: 2 µM

Row | Structure (SMILES) | Bacterial Biotransformation
9 | Clc1ccc(Cn2c(CN3CCCC3)nc3ccccc32)cc1 [CLEMIZOLE] | Compound metabolized
10 | COc1cc2c(c(OC)c1OC)-c1ccc(OC)c(=O)cc1[C@@H](NC(C)=O)CC2 [COLCHICINE] | Compound NOT metabolized

Assay: as §1, with “Z-009” for “Z-028”, “pig” for “mouse”, “ERS12561809” for “ERS12561827”
Details: 2 µM

Row | Structure (SMILES) | Bacterial Biotransformation
11 | Clc1ccc(Cn2c(CN3CCCC3)nc3ccccc32)cc1 [CLEMIZOLE] | Compound NOT metabolized
12 | COc1cc2c(c(OC)c1OC)-c1ccc(OC)c(=O)cc1[C@@H](NC(C)=O)CC2 [COLCHICINE] | Compound metabolized

Assay: as §1, with “Z-007” for “Z-028”, “rat” for “mouse”, “ERS12561807” for “ERS12561827”
Details: 2 µM

Row | Structure (SMILES) | Bacterial Biotransformation
13 | Clc1ccc(Cn2c(CN3CCCC3)nc3ccccc32)cc1 [CLEMIZOLE] | Compound NOT metabolized
14 | COc1cc2c(c(OC)c1OC)-c1ccc(OC)c(=O)cc1[C@@H](NC(C)=O)CC2 [COLCHICINE] | Compound NOT metabolized

Assay: as §1, with “Z-001” for “Z-028”, “ERS12561801” for “ERS12561827”
Details: 2 µM

Row | Structure (SMILES) | Bacterial Biotransformation
15 | Clc1ccc(Cn2c(CN3CCCC3)nc3ccccc32)cc1 [CLEMIZOLE] | Compound metabolized
16 | COc1cc2c(c(OC)c1OC)-c1ccc(OC)c(=O)cc1[C@@H](NC(C)=O)CC2 [COLCHICINE] | Compound NOT metabolized

Assay: as §1, with “WLS-082” for “Z-028”, “human” for “mouse”, “ERS12561751” for “ERS12561827”
Details: 2 µM

Row | Structure (SMILES) | Bacterial Biotransformation
17 | Clc1ccc(Cn2c(CN3CCCC3)nc3ccccc32)cc1 [CLEMIZOLE] | Compound metabolized
18 | COc1cc2c(c(OC)c1OC)-c1ccc(OC)c(=O)cc1[C@@H](NC(C)=O)CC2 [COLCHICINE] | Compound metabolized

Assay: as §1, with “WLS-006” for “Z-028”, “human” for “mouse”, “ERS12561741” for “ERS12561827”
Details: 2 µM

Row | Structure (SMILES) | Bacterial Biotransformation
19 | Clc1ccc(Cn2c(CN3CCCC3)nc3ccccc32)cc1 [CLEMIZOLE] | Compound metabolized
20 | COc1cc2c(c(OC)c1OC)-c1ccc(OC)c(=O)cc1[C@@H](NC(C)=O)CC2 [COLCHICINE] | Compound metabolized

Details: human gut metagenome, 24 h, 2 µM

Row | Structure (SMILES) | Bacterial Biotransformation
21 | Clc1ccc(Cn2c(CN3CCCC3)nc3ccccc32)cc1 [CLEMIZOLE] | Compound NOT metabolized
22 | COc1cc2c(c(OC)c1OC)-c1ccc(OC)c(=O)cc1[C@@H](NC(C)=O)CC2 [COLCHICINE] | Compound metabolized

Details: human gut metagenome, 24 h, 2 µM
Remark: another data set of the same source

Row | Structure (SMILES) | Bacterial Biotransformation
23 | Clc1ccc(Cn2c(CN3CCCC3)nc3ccccc32)cc1 [CLEMIZOLE] | Compound metabolized
24 | COc1cc2c(c(OC)c1OC)-c1ccc(OC)c(=O)cc1[C@@H](NC(C)=O)CC2 [COLCHICINE] | Compound metabolized

Details: human gut metagenome, 24 h, 2 µM
Remark: another data set of the same source

Row | Structure (SMILES) | Bacterial Biotransformation
25 | Clc1ccc(Cn2c(CN3CCCC3)nc3ccccc32)cc1 [CLEMIZOLE] | Compound NOT metabolized
26 | COc1cc2c(c(OC)c1OC)-c1ccc(OC)c(=O)cc1[C@@H](NC(C)=O)CC2 [COLCHICINE] | Compound metabolized

Details: human gut metagenome, 24 h, 2 µM
Remark: another data set of the same source

Row | Structure (SMILES) | Bacterial Biotransformation
27 | Clc1ccc(Cn2c(CN3CCCC3)nc3ccccc32)cc1 [CLEMIZOLE] | Compound metabolized
28 | COc1cc2c(c(OC)c1OC)-c1ccc(OC)c(=O)cc1[C@@H](NC(C)=O)CC2 [COLCHICINE] | Compound metabolized

Details: human gut metagenome, 24 h, 2 µM
Remark: another data set of the same source

Row | Structure (SMILES) | Bacterial Biotransformation
29 | Clc1ccc(Cn2c(CN3CCCC3)nc3ccccc32)cc1 [CLEMIZOLE] | Compound metabolized
30 | COc1cc2c(c(OC)c1OC)-c1ccc(OC)c(=O)cc1[C@@H](NC(C)=O)CC2 [COLCHICINE] | Compound metabolized

Details: human gut metagenome, 24 h, 2 µM
Remark: another data set of the same source

Row | Structure (SMILES) | Bacterial Biotransformation
31 | Clc1ccc(Cn2c(CN3CCCC3)nc3ccccc32)cc1 [CLEMIZOLE] | Compound NOT metabolized
32 | COc1cc2c(c(OC)c1OC)-c1ccc(OC)c(=O)cc1[C@@H](NC(C)=O)CC2 [COLCHICINE] | Compound metabolized

Details: human gut metagenome, 24 h, 2 µM
Remark: another data set of the same source

Row | Structure (SMILES) | Bacterial Biotransformation
33 | Clc1ccc(Cn2c(CN3CCCC3)nc3ccccc32)cc1 [CLEMIZOLE] | Compound metabolized
34 | COc1cc2c(c(OC)c1OC)-c1ccc(OC)c(=O)cc1[C@@H](NC(C)=O)CC2 [COLCHICINE] | Compound metabolized

Details: human gut metagenome, 24 h, 2 µM
Remark: another data set of the same source

Row | Structure (SMILES) | Bacterial Biotransformation
35 | Clc1ccc(Cn2c(CN3CCCC3)nc3ccccc32)cc1 [CLEMIZOLE] | Compound NOT metabolized
36 | COc1cc2c(c(OC)c1OC)-c1ccc(OC)c(=O)cc1[C@@H](NC(C)=O)CC2 [COLCHICINE] | Compound NOT metabolized

Details: human gut metagenome, 24 h, 2 µM
Remark: another data set of the same source

Row | Structure (SMILES) | Bacterial Biotransformation
37 | Clc1ccc(Cn2c(CN3CCCC3)nc3ccccc32)cc1 [CLEMIZOLE] | Compound metabolized
38 | COc1cc2c(c(OC)c1OC)-c1ccc(OC)c(=O)cc1[C@@H](NC(C)=O)CC2 [COLCHICINE] | Compound metabolized

Details: human gut metagenome, 24 h, 2 µM
Remark: another data set of the same source

Row | Structure (SMILES) | Bacterial Biotransformation
39 | Clc1ccc(Cn2c(CN3CCCC3)nc3ccccc32)cc1 [CLEMIZOLE] | Compound metabolized
40 | COc1cc2c(c(OC)c1OC)-c1ccc(OC)c(=O)cc1[C@@H](NC(C)=O)CC2 [COLCHICINE] | Compound NOT metabolized
